Data from article PMC3895407 (Journal of medicinal chemistry, 2013).
Marks after values point to notes of the source that are not given here.

Legend:
in vitro [1] = conditions: PAMPA, pH 7.4
in vitro [2] = test: in vitro
WEEV replicon = format: cell-based, western equine encephalitis virus
Fort Morgan virus (FMV) [3] = conditions: 25 µM
[4] = Table 3; BBB lipid mixture, pH 7.4
Fort Morgan virus (FMV) [5] = format: cell-based
[6] = tested on: cell viability (cellular reduction of MTT)
[7] = relative to lead compound 3
[8] = tested on: western equine encephalitis virus (WEEV); conditions: cited from earlier work
[9] = tested on: western equine encephalitis virus (WEEV); conditions: 25 µM

Molecule	Papp (in vitro [1])	CC50 (in vitro [2])	also measured
O=C(NCCn1ccnc1)C1CCN(C(=O)c2cc3ccccc3n2Cc2ccc(Cl)cc2)CC1 [27o, N-(2-(1H-Imidazol-1-yl)ethyl)-1-(1-(4-chlorobenzyl)-1H-indole-2-carbonyl)piperidine-4-carboxamide]	1.74 ×10⁻⁶ cm/s		
CN(C)C(=O)C1CCN(C(=O)c2cc3ccccc3n2Cc2ccc(Cl)cc2)CC1 [27v, 1-(1-(4-Chlorobenzyl)-1H-indole-2-carbonyl)-N,N-dimethylpiperidine-4-carboxamide]	64.6 ×10⁻⁶ cm/s	> 100 µM	
O=C(NCc1ccncc1)C1CCN(C(=O)c2cc3ccccc3n2Cc2ccc(Cl)cc2)CC1 [compound 4]	69.2 ×10⁻⁶ cm/s	> 100 µM	
O=C(NCCCc1ccncc1)C1CCN(C(=O)c2cc3ccccc3n2Cc2ccc(Cl)cc2)CC1 [27j, 1-(1-(4-Chlorobenzyl)-1H-indole-2-carbonyl)-N-(3-(pyridin-4-yl)propyl)piperidine-4-carboxamide]	77.6 ×10⁻⁶ cm/s		Fold decrease in potency in WEEV replicon assay (WEEV replicon): 5 fold
COCCn1c(C(=O)N2CCC(C(=O)N(C)Cc3ccccc3)CC2)cc2ccccc21 [28f, N-Benzyl-1-(1-(2-methoxyethyl)-1H-indole-2-carbonyl)-N-methylpiperidine-4-carboxamide]	40.7 ×10⁻⁶ cm/s	> 50 µM	
O=C(NCCc1ccncc1)C1CCN(C(=O)c2nccn2Cc2ccc(Cl)cc2)CC1 [29b, 1-(1-(4-Chlorobenzyl)-1H-imidazole-2-carbonyl)-N-(2-(pyridin-4-yl)ethyl)piperidine-4-carboxamide]	8.71 ×10⁻⁶ cm/s	> 50 µM	
O=C(NCc1cccnc1)C1CCN(C(=O)c2cc3ccccc3n2Cc2ccc(Cl)cc2)CC1 [compound 5]			Fold loss in activity in WEEV replicon assay (WEEV replicon): 2 fold
CC(=O)n1c(C(=O)N2CCC(C(=O)N(C)Cc3ccccc3)CC2)cc2ccccc21 [28e, 1-(1-Acetyl-1H-indole-2-carbonyl)-N-benzyl-N-methylpiperidine-4-carboxamide]	9.77 ×10⁻⁶ cm/s	> 50 µM	
O=C(NCCc1ccncc1)C1CCN(C(=O)c2cc3ccncc3n2Cc2ccc(Cl)cc2)CC1 [29j, 1-(1-(4-Chlorobenzyl)-1H-pyrrolo[2,3-c]pyridine-2-carbonyl)-N-(2-(pyridin-4-yl)ethyl)piperidine-4-carboxamide]	3.02 ×10⁻⁶ cm/s		
CN(Cc1ccccc1)C(=O)C1CCN(C(=O)c2cc3ccccc3n2Cc2ccc(C#N)cc2)CC1 [28c, N-Benzyl-1-(1-(4-cyanobenzyl)-1H-indole-2-carbonyl)-N-methylpiperidine-4-carboxamide]	53.7 ×10⁻⁶ cm/s	> 100 µM	
O=C(NCCc1ccncc1)C1CCN(C(=O)NCCc2ccc(Cl)cc2)CC1 [29d, N1-(4-Chlorophenethyl)-N4-(2-(pyridin-4-yl)ethyl)piperidine-1,4-dicarboxamide]	14.1 ×10⁻⁶ cm/s	> 100 µM	
COc1cccc(CCNC(=O)C2CCN(C(=O)c3cc4ccccc4n3Cc3ccc(Cl)cc3)CC2)c1 [27p, 1-(1-(4-Chlorobenzyl)-1H-indole-2-carbonyl)-N-(3-methoxyphenethyl)piperidine-4-carboxamide]		> 100 µM	
O=C(NCCc1ccncc1)C1CCN(C(=O)c2cc3ccccc3n2Cc2ccc(Cl)cc2)CC1 [27g, 1-(1-(4-Chlorobenzyl)-1H-indole-2-carbonyl)-N-(2-(pyridin-4-yl)ethyl)piperidine-4-carboxamide]	66.1 ×10⁻⁶ cm/s		FMV Viability (% uninfected control) (Fort Morgan virus (FMV) [3]): 71.9 ± 1.9 % uninfected control; BBB-PAMPA (log Peff) [4]: -4.18 ± 0.06 cm/s; Fold increase in potency in WEEV replicon assay (WEEV replicon): 10 fold; Reduction of viral titers compared with 3 (Fort Morgan virus (FMV) [5]): approximately ten-fold more than 3
1-(1-(4-Chlorobenzyl)-1H-indole-2-carbonyl)-N-(2-methyl-2-(pyridin-4-yl)propyl)piperidine-4-carboxamide [27l]			IC50 (WEEV replicon; read-out: IC50 (inhibition of luciferase expression in WEEV replicon assay)): 19.3 ± 21 µM; CC50 [6]: 43.6 µM
O=C(NCCc1ccncc1)C1CCN(C(=O)c2nc3ccccc3n2Cc2ccc(Cl)cc2)CC1 [29c, 1-(1-(4-Chlorobenzyl)-1H-benzo[d]imidazole-2-carbonyl)-N-(2-(pyridin-4-yl)ethyl)piperidine-4-carboxamide]	31.6 ×10⁻⁶ cm/s		Fold increase in half-life in mouse liver microsomes [7]: 20-35 fold
O=C(NCCc1ccncc1)C1CCN(C(=O)c2cc3ccccc3n2Cc2ccccc2)CC1 [29f, 1-(1-Benzyl-1H-indole-2-carbonyl)-N-(2-(pyridin-4-yl)ethyl)piperidine-4-carboxamide]			Fold increase in half-life in mouse liver microsomes [7]: 20-35 fold

Molecule	Papp (in vitro [1])	CC50 (in vitro [2])	also measured
Cn1c(C(=O)N2CCC(C(=O)NCCc3ccncc3)CC2)cc2ccccc21 [29e, 1-(1-Methyl-1H-indole-2-carbonyl)-N-(2-(pyridin-4-yl)ethyl)piperidine-4-carboxamide]		> 50 µM	
O=C(NCCc1ccncc1)C1CCN(C(=O)c2cc3cc(F)ccc3n2Cc2ccc(Cl)cc2)CC1 [29i, 1-(1-(4-Chlorobenzyl)-5-fluoro-1H-indole-2-carbonyl)-N-(2-(pyridin-4-yl)ethyl)piperidine-4-carboxamide]	77.6 ×10⁻⁶ cm/s		
C[C@@H](NC(=O)C1CCN(C(=O)c2cc3ccccc3n2Cc2ccc(Cl)cc2)CC1)c1ccncc1 [27b, (R)-1-(1-(4-Chlorobenzyl)-1H-indole-2-carbonyl)-N-(1-(pyridin-4-yl)ethyl)piperidine-4-carboxamide]	95.5 ×10⁻⁶ cm/s		
Cn1ccc(CNC(=O)C2CCN(C(=O)c3cc4ccccc4n3Cc3ccc(Cl)cc3)CC2)n1 [27e, 1-(1-(4-Chlorobenzyl)-1H-indole-2-carbonyl)-N-((1-methyl-1H-pyrazol-3-yl)methyl)piperidine-4-carboxamide]		> 100 µM	
O=C(NCCc1ccncc1)C1CCN(C(=O)c2cc3ccc(F)cc3n2Cc2ccc(Cl)cc2)CC1 [29h, 1-(1-(4-Chlorobenzyl)-6-fluoro-1H-indole-2-carbonyl)-N-(2-(pyridin-4-yl)ethyl)piperidine-4-carboxamide]			Reduction of viral titers compared with 3 (Fort Morgan virus (FMV) [5]): approximately ten-fold more than 3
O=C(NCCc1ccncc1)C1CCN(C(=O)c2cc(F)cn2Cc2ccc(Cl)cc2)CC1 [29k, 1-(1-(4-Chlorobenzyl)-4-fluoro-1H-pyrrole-2-carbonyl)-N-(2-(pyridin-4-yl)ethyl)piperidine-4-carboxamide]	12.6 ×10⁻⁶ cm/s		
O=C(c1cc2ccccc2n1Cc1ccc(Cl)cc1)N1CCC(C(=O)N2CCOCC2)CC1 [27x, (1-(4-Chlorobenzyl)-1H-indol-2-yl)(4-(morpholine-4-carbonyl)piperidin-1-yl)methanone]		> 100 µM	
Cn1cnc(CNC(=O)C2CCN(C(=O)c3cc4ccccc4n3Cc3ccc(Cl)cc3)CC2)c1 [27f, 1-(1-(4-Chlorobenzyl)-1H-indole-2-carbonyl)-N-((1-methyl-1H-imidazol-4-yl)methyl)piperidine-4-carboxamide]		> 50 µM	
CN1CCC(CNC(=O)C2CCN(C(=O)c3cc4ccccc4n3Cc3ccc(Cl)cc3)CC2)CC1 [27d, 1-(1-(4-Chlorobenzyl)-1H-indole-2-carbonyl)-N-((1-methylpiperidin-4-yl)methyl)piperidine-4-carboxamide]		> 50 µM	
CN(CCc1ccncc1)C(=O)C1CCN(C(=O)c2cc3ccccc3n2Cc2ccc(Cl)cc2)CC1 [27m, 1-(1-(4-Chlorobenzyl)-1H-indole-2-carbonyl)-N-methyl-N-(2-(pyridin-4-yl)ethyl)piperidine-4-carboxamide]	61.7 ×10⁻⁶ cm/s		Fold diminished potency in WEEV replicon assay (WEEV replicon): 3 fold
CN(Cc1ccccc1)C(=O)C1CCN(C(=O)c2cc3ccccc3n2Cc2ccc([N+](=O)[O-])cc2)CC1 [28b, N-Benzyl-N-methyl-1-(1-(4-nitrobenzyl)-1H-indole-2-carbonyl)piperidine-4-carboxamide]		> 100 µM	
CC(NC(=O)C1CCN(C(=O)c2cc3ccccc3n2Cc2ccc(Cl)cc2)CC1)c1ccncc1 (stereo not drawn) [27a, 1-(1-(4-Chlorobenzyl)-1H-indole-2-carbonyl)-N-(1-(pyridin-4-yl)ethyl)piperidine-4-carboxamide]	102 ×10⁻⁶ cm/s		FMV Viability (% uninfected control) (Fort Morgan virus (FMV) [3]): 68.2 ± 2.4 % uninfected control; Fold improvement of activity in WEEV replicon assay (WEEV replicon): about 3 fold; Reduction of viral titers compared with 3 (Fort Morgan virus (FMV) [5]): approximately ten-fold more than 3
C[C@@H](NC(=O)C1CCN(C(=O)c2cc3ccccc3n2Cc2ccc(Cl)cc2)CC1)c1ccccc1 [compound 3]	0.302 ×10⁻⁶ cm/s	> 100 µM	FMV Viability (% uninfected control) (Fort Morgan virus (FMV) [3]): 47.4 ± 8.0 % uninfected control; WEEV Titer [8]: 8.8 ± 1.0* x10^6 pfu/mL
NC(=O)c1ncn([C@@H]2O[C@H](CO)[C@@H](O)[C@H]2O)n1 [Ribavirin]			WEEV Viability (% uninfected control) [9]: 35.3 ± 1.0 % uninfected control
O=C(NCCc1ccncc1)C1CCN(C(=O)c2cccn2Cc2ccc(Cl)cc2)CC1 [29a, 1-(1-(4-Chlorobenzyl)-1H-pyrrole-2-carbonyl)-N-(2-(pyridin-4-yl)ethyl)piperidine-4-carboxamide]	9.77 ×10⁻⁶ cm/s	> 100 µM	FMV Viability (% uninfected control) (Fort Morgan virus (FMV) [3]): 63.0 ± 5.9 % uninfected control
